{
  "source": "paper PMC12884720",
  "about": "“Gabpα‐Pparγ Complex Determines Glycolytic Capacity and Lactic Acid Homeostasis in Brown Fat” (Advanced Science, 2025)",
  "molecules": {"B1": {"name": "Gabpα protein (SPR analyte) (natural protein, UniProt Q00422 1-454, looked up)", "chain": "MTKREAEELIEIEIDGTEKAECTEESIVEQTYTPAECVSQAIDINEPIGNLKKLLEPRLQCSLDAHEICLQDIQLDPDRSLFDQGVKTDGTVQLSVQVISYQGMEPKLNILEIVKTAETVEVVIDPDAHHAEAEAHLVEEAQVITLDGTKHITTISDETSEQVTRWAAALEGYRKEQERLGIPYDPIHWSTDQVLHWVVWVMKEFSMTDIDLTTLNISGRELCSLNQEDFFQRVPRGEILWSHLELLRKYVLASQEQQMNEIVTIDQPVQIIPASVPPATPTTIKVINSSAKAAKVQRSPRISGEDRSSPGNRTGNNGQIQLWQFLLELLTDKDARDCISWVGDEGEFKLNQPELVAQKWGQRKNKPTMNYEKLSRALRYYYDGDMICKVQGKRFVYKFVCDLKTLIGYSAAELNRLVIECEQKKLARMQLHGIAQPVTAVALAATSLQADKEI", "notes": "May be the Cusabio GST-Gabpα of the pull-down"}},
  "key": {"[1]": {"system": "differentiated iBAT‐SVF cells", "test": "Lactate levels in differentiated iBAT-SVF cells", "type": "cell-based, C57BL/6 mice", "settings": "GPCBi 5 µM, first 2 days of differentiation, and Enoblock 10 µM for 24 h (Figure 5o)", "method": "(§1) Interscapular BAT‐SVF cells were obtained from eight‐week‐old male C57BL/6 mice. Briefly, BAT was excised, washed in PBS, minced, and digested at 37 °C for 40 min in Hanks solution containing type II collagenase (Sigma, Cat# C‐6885) and 4% bovine serum albumin (BSA). The tissue homogenates were filtered through a 70 µm cell strainer and centrifuged at 1000 rpm for 5 min. The cell pellet was resuspended in DMEM supplemented with 10% FBS (Sigma–Aldrich) and 1% penicillin/streptomycin (P/S) at 37 °C with 5% CO2. The next day, BAT‐SVF cells were immortalized with the SV40 large T antigen according to a published protocol.^[ [32] ^] For iBAT‐SVF cell differentiation, confluent SVF cells were induced to differentiate with medium containing 0.5 mM isobutylmethylxanthine (Sigma, Cat# I‐5879), 125 µM indomethacin (Sigma, Cat# I‐7378), 2 µg mL^−1 dexamethasone (Sigma, Cat# D‐1756), 5 µg mL^−1 insulin (Solarbio, Cat# I‐8040), 1 nM triiodo‐L‐thyronine (Sigma, Cat# T‐2877), and 1 µM rosiglitazone (Cayman, Cat# 71740‐100). After 48 h, the induction medium was replaced with a maintenance cocktail (5 µg mL^−1 insulin, 1 nM triiodo‐L‐thyronine, and 1 µM rosiglitazone) until 6 to 8 days after the induction of differentiation.\nBrown fat was homogenized with lysis buffer, ultrasonographically treated on ice at 300 W (on for 3 s, off for 7 s) for 2 min, and then centrifuged at 4 °C at 12 000 × g for 10 min. […] All protocols were followed in accordance with the manufacturer's guidelines."}, "[2]": {"system": "differentiated iBAT‐SVF cells", "test": "Relative mRNA and protein levels in differentiated iBAT-SVF cells", "type": "cell-based, C57BL/6 mice", "settings": "GPCBi 5 µM, first 2 days of differentiation, and Enoblock 10 µM for 24 h (Figure 5p)", "method": "Interscapular BAT‐SVF cells were obtained from eight‐week‐old male C57BL/6 mice. […] The tissue homogenates were filtered through a 70 µm cell strainer and centrifuged at 1000 rpm for 5 min. The cell pellet was resuspended in DMEM supplemented with 10% FBS (Sigma–Aldrich) and 1% penicillin/streptomycin (P/S) at 37 °C with 5% CO2. The next day, BAT‐SVF cells were immortalized with the SV40 large T antigen according to a published protocol.^[ [32] ^] […] After 48 h, the induction medium was replaced with a maintenance cocktail (5 µg mL^−1 insulin, 1 nM triiodo‐L‐thyronine, and 1 µM rosiglitazone) until 6 to 8 days after the induction of differentiation.\nReverse transcription of cDNA was completed via the use of 1 µg of RNA with HiScript II Q RT SuperMix for real‐time quantitative PCR (qPCR) (Vazyme Biotech, Nanjing, China, Cat# R222) according to the provided protocols. qPCR was performed with a real‐time PCR system on a QuantStudio1 (Applied Biosystems) using Taq Pro Universal SYBR qPCR Master Mix (Vazyme Biotech., Nanjing, China, Cat# Q712‐02). Relative transcript levels were calculated via the comparative C T method; 36b4 was used as the internal control for cells, whereas Hprt was used as the internal control for tissues. The primer sequences are listed in Table S1 (Supporting Information). The mRNAs from the BAT of control and Gabpα ^Ucp1 KO mice were extracted and subjected to commercial RNA‐seq (BGI Genomics Co., Ltd.) for further DEG and KEGG pathway enrichment analysis. In detail, RNA quality was examined with Fragment (Agilent). High‐quality RNA (RIN > 8.0) was used to library construction. RNA‐seq was performed at BGI Genomics (China) using the Illumina NovaSeq 6000 platform. Clean reads were aligned to the mouse reference genome (GRCm39) using Bowtie2, and transcript quantification was performed with RSEM. […] The RNA‐seq data generated in this study have been deposited in the National Center for Biotechnology Information Sequence Read Archive database under accession code PRJNA1358056.\nCells and tissues were lysed in RIPA lysis buffer (Beyotime, Shanghai, China, Cat# P0013B) containing a protease inhibitor cocktail (MedChem Express, NJ, USA, Cat# HY‐K0010) according to the manufacturer's protocol. Equal amounts of protein were separated on SDS‒PAGE gels and transferred to PVDF membranes (Millipore). The PVDF membranes were blocked in 5% skim milk for 1 h at room temperature and then incubated with primary antibody overnight at 4 °C. The membranes were washed three times with TBST and then incubated with HRP‐conjugated secondary antibodies for 1 h at room temperature. After washing three times, the Western blots were imaged via an enhanced chemiluminescence system."}, "BAT from wild‐type mice": {"system": "BAT from wild‐type mice", "test": "H&E staining and Ucp1 immunostaining of BAT", "type": "in vivo, wild‐type C57BL/6J mice", "settings": "GPCBi 5.5 mg kg^−1 in BAT for 7 days, then sodium lactate 2 g kg^−1 d^−1 i.p. daily for 3 days following 10 °C for 2 days; Ucp1 immunostaining (Figure 5g-i)", "method": "The mouse experiments were approved by the Institutional Animal Care and Use Committee of the Institute of Model Animals of Tongji Hospital, Huazhong University of Science and Technology, and were performed in compliance with all relevant ethical regulations (approval number: TJH‐202110044). Unless otherwise noted, the mice were housed in a pathogen‐free and climate‐controlled environment (22–25 °C, 40‐60% humidity) and were given free access to food and water on a 12 h light/dark cycle. Wild‐type C57BL/6J mice were obtained from Beijing Huafukang Bioscience Co., Ltd. (Beijing, China). Gabpa ^flox/flox , Adipoq^Cre , and Ucp1^Cre mice were purchased from Cyagen Biosciences, Inc. (Guangzhou, China). For GPCBi treatment, wild‐type mice were orthotopically injected GPCBi (FITC‐[…]; 5.5 mg kg^−1) or scramble peptide (FITC‐[…]; 5.5 mg kg^−1) into the BAT at room temperature for one week. […] For cold exposure, the mice were caged individually and exposed to a temperature of 10 or 4 °C. The mice were euthanized by CO2 inhalation. For studies with specific diets, five‐week‐old male Gabpα ^Adipo KI mice and their respective littermate control mice were fed a HFD (D12492, Research Diets; 60 kcal% fat, 20 kcal% carbohydrates, and 20 kcal% protein; Medicience Ltd., Jiangsu, China) at ambient temperature. The food was changed every week. Body weight was measured every week, and tissue weights were measured at the time of euthanasia.\nFor haematoxylin and eosin (H&E) staining, adipose tissues and the liver were fixed in 4% paraformaldehyde overnight at 4 °C and then dehydrated in 70% ethanol. The tissues were subsequently embedded in paraffin, sectioned at a thickness of 5 µm, and stained with H&E or immunostained with a Ucp1 antibody (Abcam, UK, Cat# ab234430, 1:500 dilution) following the standard protocol. For Oil Red O staining, frozen liver sections were stained with Oil Red O solution for 10 min and then counterstained with haematoxylin for 20 s. Images of the tissue samples were captured via an Olympus BX53 Orthomicroscope. […]"}, "Eno1 promoter": {"system": "Eno1 promoter", "test": "Luciferase reporter assay, Eno1-Luc activated by Gabpα and Pparγ/Rxrα", "type": "cell-based, human", "settings": "HEK293T cells, T0070907 10 µM, n = 3 (Figure 3o)", "method": "HEK293T cells were transfected with 100 ng of Pparγ and 100 ng of Rxrα or empty vector together with 100 ng of Gabpα plasmid or the C‐terminal truncation mutants and 200 ng of Eno1 luciferase reporter plasmid in 24‐well plates via Lipofectamine reagent (Yeasen, Shanghai, China, Cat# 40802ES03). For the experiments with the peptides GPCBi or T0070907, the additional peptides GPCBi (3 µM) or T0070907 (10 µM) were added to the HEK293T cells one day after the plasmid complex was transfected. After 48 h of transfection, luciferase activity was measured via the Dual‐Luciferase Reporter Assay System (Vazyme Biotech., Nanjing, China; Cat# DL101‐01). Firefly luciferase reporter gene measurements were normalized to Renilla luciferase activity."}, "iBAT‐SVF cells": {"system": "iBAT‐SVF cells", "test": "Immunofluorescence, nuclear localization of FITC-GPCBi in iBAT-SVF cells", "type": "cell-based, C57BL/6 mice", "settings": "FITC‐GPCBi 5 µM, first 2 days of adipogenic differentiation; DAPI (Figure 4d)", "method": "as §1, with “After 48 h, the induction medium was replaced with a maintenance cocktail (5 µg mL^−1 insulin, 1 nM triiodo‐L‐thyronine, and 1 µM rosiglitazone) until 6 to 8 days after the induction of differentiation.” left out\nDifferentiated iBAT‐SVF cells were fixed with 4% paraformaldehyde for 20 min at room temperature and then rinsed three times with PBS. […] The cells were subsequently washed three times with PBS and incubated with a fluorescence‐conjugated secondary antibody (ABclonal, Wuhan, China, Cat# AS053; AS008, 1:200 dilution) for 1 h at room temperature. […]"}, "[3]": {"target": "T1, Pparγ protein (SPR ligand) (UniProt P37238 1-505)", "T1 construct": "May be the Cusabio His-Pparγ of the pull-down", "T1 sequence (looked up)": "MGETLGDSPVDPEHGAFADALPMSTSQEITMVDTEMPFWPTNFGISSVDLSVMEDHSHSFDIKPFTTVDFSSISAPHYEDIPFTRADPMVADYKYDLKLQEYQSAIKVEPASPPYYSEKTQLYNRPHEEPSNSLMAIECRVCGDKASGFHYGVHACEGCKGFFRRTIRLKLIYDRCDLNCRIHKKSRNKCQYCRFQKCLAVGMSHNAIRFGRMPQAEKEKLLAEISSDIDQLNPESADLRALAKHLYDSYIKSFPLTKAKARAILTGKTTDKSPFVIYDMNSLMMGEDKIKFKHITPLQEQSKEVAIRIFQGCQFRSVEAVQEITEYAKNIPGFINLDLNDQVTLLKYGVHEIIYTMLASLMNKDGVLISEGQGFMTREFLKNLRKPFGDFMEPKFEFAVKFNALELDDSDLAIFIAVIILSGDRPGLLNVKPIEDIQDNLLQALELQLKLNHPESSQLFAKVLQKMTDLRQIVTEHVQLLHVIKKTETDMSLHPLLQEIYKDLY", "test": "SPR; Biacore T200, CM5 chip; Pparγ immobilised covalently; different concentrations of Gabpα injected; 120 s association, 200 s dissociation", "settings": "both partners purified"}, "[4]": {"target": "B1", "test": "not stated; direct binding of GPCBi to Gabpα, dose-dependent (Figure S4d); method and who was immobilised not told", "settings": "both partners purified"}},
  "note": "No end group written: not given here. *: point of attachment. FITC = O=C1OC2(c3ccc(O)cc3Oc3cc(O)ccc32)c2ccc(NC(=S)*)cc21",
  "data": [
    {"molecule": "NCCOCCOCCNC(=O)Cc1ccc(Nc2nc(NCc3ccc(F)cc3)nc(NCC3CCCCC3)n2)cc1", "note": "[Enoblock, reference compound]", "values": [
      {"measurement": "GPCBi-induced reduction of lactate level in presence of Enoblock", "setting": "[1]", "value": "not observed"},
      {"measurement": "ucp1 expression when Enoblock further added to GPCBi-treated brown adipocytes", "setting": "[2]", "value": "no change"}
    ]},
    {"molecule": "CC(O)C(=O)[O-].[Na+]", "note": "(stereo not shown) [lactate, sodium lactate, reference compound]", "values": [
      {"measurement": "Ucp1 expression suppressed by GPCBi (rescue)", "setting": "BAT from wild‐type mice", "value": "rescued"}
    ]},
    {"molecule": "O=C(Nc1ccncc1)c1cc([N+](=O)[O-])ccc1Cl", "note": "[T0070907, reference compound]", "values": [
      {"measurement": "Eno1 promoter activity induced by Gabpα", "setting": "Eno1 promoter", "value": "inhibited"}
    ]},
    {"molecule": "FITC‐tagged GPCBi: FITC‐tagged GPCBi ({FITC}-YGRKKRRQRRRRRTIRLKLIYDRCDLNCRIHKKSRNK; cysteine pairing not given here)", "values": [
      {"measurement": "cellular localization", "setting": "iBAT‐SVF cells", "value": "nuclear localization"}
    ]},
    {"molecule": "B1", "values": [
      {"measurement": "Kd", "setting": "[3]", "value": 5.34, "unit": "nM"}
    ]},
    {"molecule": "{FITC}-YGRKKRRQRRRRRTIRLKLIYDRCDLNCRIHKKSRNK (cysteine pairing not given here, the numbers fit the 505-residue Pparγ2; also called FITC-GPCBi; peptide GPCBi; source: synthetic peptide)", "note": "[Gabpα-Pparγ complex binding inhibitor (GPCBi)]", "values": [
      {"measurement": "Kd", "setting": "[4]", "value": 7.03, "unit": "nM"}
    ]}
  ]
}
